Patent US10765662B2, “Mono- or di-substituted indole derivatives as dengue viral replication inhibitors” (Janssen Pharmaceuticals, Inc., priority 2015, dated 2020)

Columns and labels:
DENV-1 strain TC974#666 = assay: Tetravalent RT-qPCR assay Protocol A, serotype 1; assay type: cell-based; details: Dengue virus, DENV1, 72 h; RT-qPCR serotype 1 TC974#666, Vero cells, day 3
Protocol: (§1) The antiviral activity of the compounds of the invention was tested against DENV-1 strain TC974#666 (NCPV), DENV-2 strain 16681, DENV-3 strain H87 (NCPV) and DENV-4 strains H241 (NCPV) and EDEN (SG/06K2270DK1/2005; GenBank accession number QG398256) in a RT-qPCR assay. Therefore, Vero cells were infected with either DENV-1, or -2, or -3, or -4 in the presence or absence of test compounds. At day 3 post-infection, the cells were lysed and cell lysates were used to prepare cDNA of both a viral target (the 3′UTR of DENV; Table 2) and a cellular reference gene (β-actin, Table 2). Subsequently, a duplex real time PCR was performed on a Lightcycler480 instrument. The generated Cp value is inversely proportional to the amount of RNA expression of these targets. Inhibition of DENV replication by a test compound results in a shift of Cp's for the 3′UTR gene. On the other hand, if a test compound is toxic to the cells, a similar effect on β-actin expression will be observed. The comparative ΔΔCp method is used to calculate EC50, which is based on the relative gene expression of the target gene (3′UTR) normalized with the cellular housekeeping gene (β-actin). In addition, CC50 values are determined based on the Cp values acquired for the housekeeping gene β-actin.
(§2) The culture medium consisted of minimal essential medium supplemented with 2% of heat-inactivated fetal calf serum, 0.04% gentamycin (50 mg/mL) and 2 mM of L-glutamine. Vero cells, obtained from ECACC, were suspended in culture medium and 75 μL/well was added in 96-well plates (10000 cells/well), which already contain the antiviral compounds. […] In addition, each plate contains wells which are assigned as virus controls (containing cells and virus in the absence of compound) and cell controls (containing cells in the absence of virus and compound). Once the cells were added in the plates, the plates were incubated in a fully humidified incubator (37° C., 5% CO2) until the next day. Dengue viruses serotype-1, 2, 3 and 4 were diluted in order to obtain a Cp of ˜22-24 in the assay. Therefore, 25 μL of virus suspension, was added to all the wells containing test compound and to the wells assigned as virus control. In parallel, 25 μL of culture medium was added to the cell controls. Next, the plates were incubated for 3 days in a fully humidified incubator (37° C., 5% CO2). After 3 days, the supernatant was removed from the wells and the cells were washed twice with ice-cold PBS (˜100 μL). The cell pellets within the 96-well plates were stored at −80° C. for at least 1 day. Next, RNA was extracted using the Cells-to-CT™ lysis kit, according to the manufacturer's guideline (Life Technologies). The cell lysates can be stored at −80° C. or immediately used in the reverse transcription step.
(§3) In preparation of the reverse transcription step, mix A (table 3A) was prepared and 7.57 μL/well was dispensed in a 96-well plate. After addition of 5 μL of the cell lysates, a five minute denaturation step at 75° C. was performed (table 3B). Afterwards, 7.43 μL of mix B was added (table 3C) and the reverse transcription step was initiated (table 3D) to generate cDNA.
(§4) Finally, a RT-qPCR mix was prepared, mix C (table 4A), and 22.02 μL/well was dispensed in 96-well LightCycler qPCR plates to which 3 μL of cDNA was added and the qPCR was performed according to the conditions in table 4B on a LightCycler 480.
(§5) Using the LightCycler software and an in-house LIMS system, dose response curves for each compound were calculated and the half maximal effective concentration (EC50) and the half maximal cytotoxic concentration (CC50) were determined (Tables 5-8).

DENV-2 strain 16681 = assay: Tetravalent RT-qPCR assay Protocol A, serotype 2; assay type: cell-based; details: Dengue virus, DENV2, 72 h; RT-qPCR serotype 2 16681, Vero cells, day 3
Protocol: as §1, §2, §3, §4, §5

[1] = tested on: DENV-2 16681 strain labeled with enhanced green fluorescent protein; assay: DENV-2 antiviral assay (eGFP fluorescence read-out in Vero cells); assay type: cell-based, Dengue virus; details: DENV-2 16681 eGFP, MOI 0.5, 3 days
Protocol: The antiviral activity of all the compounds of the invention was tested against the DENV-2 16681 strain which was labeled with enhanced green fluorescent protein (eGPF). The culture medium consists of minimal essential medium supplemented with 2% of heat-inactivated fetal calf serum, 0.04% gentamycin (50 mg/mL) and 2 mM of L-glutamine. Vero cells, obtained from ECACC, were suspended in culture medium and 25 μL was added to 384-well plates (2500 cells/well), which already contain the antiviral compounds. Typically, these plates contain a 5-fold serial dilution of 9 dilution steps of the test compound at 200 times the final concentration in 100% DMSO (200 nL). […] Finally, each plate contains wells which are assigned as virus controls (containing cells and virus in the absence of compound), cell controls (containing cells in the absence of virus and compound) and medium controls (containing medium in the absence of cells, virus and compounds). To the wells assigned as medium control, 25 μL of culture medium was added instead of Vero cells. Once the cells were added to the plates, the plates were incubated for 30 minutes at room temperature to allow the cells to distribute evenly within the wells. Next, the plates were incubated in a fully humidified incubator (37° C., 5% CO2) until the next day. Then, DENV-2 strain 16681, labeled with eGFP, was added at a multiplicity of infection (MOI) of 0.5. Therefore, 15 μL of virus suspension was added to all the wells containing test compound and to the wells assigned as virus control. In parallel, 15 μL of culture medium was added to the medium and cell controls. Next, the plates were incubated for 3 days in a fully humidified incubator (37° C., 5% CO2). At the day of the read out, the eGFP fluorescence was measured using an automated fluorescence microscope at 488 nm (blue laser). Using an in-house LIMS system, inhibition dose response curves for each compound were calculated and the half maximal effective concentration (EC50) was determined. Therefore, the percent inhibition (I) for every test concentration is calculated using the following formula: I=100*([…])/(SVC−SCC); ST, SCC and SVC are the amount of eGFP signal in the test compound, cell control and virus control wells, respectively. The EC50 represents the concentration of a compound at which the virus replication is inhibited with 50%, as measured by a 50% reduction of the eGFP fluorescent intensity compared to the virus control. The EC50 is calculated using linear interpolation (Table 1).

[2] = tested on: DENV-4 strain EDEN (SG/06K2270DK1/2005); assay: Tetravalent RT-qPCR assay Protocol A, serotype 4 EDEN; assay type: cell-based; details: Dengue virus, DENV4, 72 h; RT-qPCR serotype 4 EDEN, Vero cells, day 3
Protocol: as §1, §2, §3, §4, §5

in vitro [3] = assay type: cell-based; details: African green monkey
Protocol: as §1, §2, §5

DENV-4 strain H241 = assay: Tetravalent RT-qPCR assay Protocol A, serotype 4 H241; assay type: cell-based; details: Dengue virus, DENV4, Vero, 72 h
Protocol: as §1, §2, §3, §4, §5

Vero cells = assay: in vitro; assay type: cell-based; details: African green monkey
Protocol: (§6) In parallel, the toxicity of the compounds was assessed on the same plates. Once the read-out for the eGFP signal was done, 40 μL of ATPlite, a cell viability stain, was added to all wells of the 384-well plates. ATP is present in all metabolically active cells and the concentration declines very rapidly when the cells undergo necrosis or apoptosis. The ATPLite assay system is based on the production of light caused by the reaction of ATP with added luciferase and D-luciferin. The plates were incubated for 10 minutes at room temperature. Next, the plates were measured on a ViewLux. The half maximal cytotoxic concentration (CC50) was also determined, defined as the concentration required to reduce the luminescent signal by 50% compared to that of the cell control wells. Finally, the selectivity index (SI) was determined for the compounds, which was calculated as followed: SI=CC50/EC50.

DENV-3 strain H87 = assay: Tetravalent RT-qPCR assay Protocol A, serotype 3; assay type: cell-based; details: Dengue virus, DENV3, 72 h; RT-qPCR serotype 3 H87, Vero cells, day 3
Protocol: as §1, §2, §3, §4, §5

in vitro [4] = assay type: cell-based; details: African green monkey, CC50
Protocol: as §6

[5] = Dengue virus, DENV2, Vero, 72 h

Compound | EC50 (DENV-1 strain TC974#666) [nM] | EC50 (DENV-2 strain 16681) [nM] | EC50 [1] [nM] | EC50 [2] [nM] | CC50 at 3 days (in vitro [3]) [nM] | EC50 (DENV-4 strain H241) [nM] | CC50 (Vero cells) [nM] | EC50 (DENV-3 strain H87) [nM] | CC50 (in vitro [4]) [nM] | melting point [°C] | EC50 [1, 5] [nM]
COc1cc(NC(C(=O)c2c[nH]c3cc(Cl)ccc23)c2ccc(Cl)cc2OCCO)cc(S(C)(=O)=O)c1 (single isomer, unassigned) [Compound 2A, 1-(6-chloro-1H-indol-3-yl)-2-(4-chloro-2-(2-hydroxyethoxy)phenyl)-2-((3-methoxy-5-(methylsulfonyl)phenyl)amino)ethanone] | 1.6 | 0.14 | 0.11 | 1.3 | > 2500 | 74 | 3400 | 18 | – | – | –
COc1cc(NC(C(=O)c2c[nH]c3c(C)c(F)ccc23)c2ccc(Cl)cc2OCCO)cc(S(C)(=O)=O)c1 (single isomer, unassigned) [Compound 4A, 2-(4-chloro-2-(2-hydroxyethoxy)phenyl)-1-(6-fluoro-7-methyl-1H-indol-3-yl)-2-((3-methoxy-5-(methylsulfonyl)phenyl)amino)ethanone] | 1.7 | 0.16 | 0.13 | 1.4 | > 2500 | 78 | – | 18 | 3000 | – | –
COc1cc(NC(C(=O)c2c[nH]c3cc(OC)ccc23)c2ccc(Cl)cc2OCCO)cc(S(C)(=O)=O)c1 (single isomer, unassigned) [Compound 3A, 2-(4-chloro-2-(2-hydroxyethoxy)phenyl)-1-(6-methoxy-1H-indol-3-yl)-2-((3-methoxy-5-(methylsulfonyl)phenyl)amino)ethanone] | 4.2 | 0.4 | 0.32 | 3.1 | 5800 | 110 | 5200 | 42 | – | – | –
COc1cc(NC(C(=O)c2c[nH]c3cc(OC)c(C)cc23)c2ccc(Cl)cc2OCCO)cc(S(C)(=O)=O)c1 (single isomer, unassigned) [Compound 6A, 2-(4-chloro-2-(2-hydroxyethoxy)phenyl)-2-((3-methoxy-5-(methylsulfonyl)phenyl)amino)-1-(6-methoxy-5-methyl-1H-indol-3-yl)ethanone] | 1.6 | 0.21 | 0.13 | 1 | 4900 | 53 | – | 17 | 3800 | – | –
COc1cc(NC(C(=O)c2c[nH]c3c(C)c(F)ccc23)c2ccc(Cl)cc2OCCO)cc(S(C)(=O)=O)c1 (racemic) [Compound 4, 2-(4-chloro-2-(2-hydroxyethoxy)phenyl)-1-(6-fluoro-7-methyl-1H-indol-3-yl)-2-((3-methoxy-5-(methylsulfonyl)phenyl)amino)ethanone] | – | – | – | – | – | – | – | – | 3700 | 173 | 0.42
COc1cc(NC(C(=O)c2c[nH]c3c(C)c(Cl)ccc23)c2ccc(Cl)cc2OCCO)cc(S(C)(=O)=O)c1 (single isomer, unassigned) [Compound 5B, 2-(4-chloro-2-(2-hydroxyethoxy)phenyl)-1-(6-chloro-7-methyl-1H-indol-3-yl)-2-((3-methoxy-5-(methylsulfonyl)phenyl)amino)ethanone] | 1.6 | 0.065 | 0.066 | 1.1 | > 2500 | 74 | 3400 | 12 | – | – | –
COc1cc(NC(C(=O)c2c[nH]c3ccc(C(F)(F)F)cc23)c2ccc(Cl)cc2OCCO)cc(S(C)(=O)=O)c1 (racemic) [Compound 9, 2-(4-chloro-2-(2-hydroxyethoxy)phenyl)-2-((3-methoxy-5-(methylsulfonyl)phenyl)amino)-1-(5-(trifluoromethyl)-1H-indol-3-yl)ethanone] | – | – | – | – | – | – | – | – | > 2500 | 228 | 0.1
COc1cc(NC(C(=O)c2c[nH]c3cc(OC)c(OC(F)(F)F)cc23)c2ccc(Cl)cc2OCCO)cc(S(C)(=O)=O)c1 (racemic) [Compound 11, 2-(4-chloro-2-(2-hydroxyethoxy)phenyl)-2-((3-methoxy-5-(methylsulfonyl)phenyl)amino)-1-(6-methoxy-5-(trifluoromethoxy)-1H-indol-3-yl)ethanone] | – | – | – | – | – | – | – | – | > 2500 | 212 | 0.2
COc1cc(NC(C(=O)c2c[nH]c3cc(F)c(F)cc23)c2ccc(Cl)cc2OCCO)cc(S(C)(=O)=O)c1 (single isomer, unassigned) [Compound 7A, 2-(4-chloro-2-(2-hydroxyethoxy)phenyl)-1-(5,6-difluoro-1H-indol-3-yl)-2-((3-methoxy-5-(methylsulfonyl)phenyl)amino)ethanone] | 0.97 | 0.21 | 0.22 | 0.64 | 2900 | 64 | 2700 | 11 | – | – | –
